Experimental data taken from US12674026B2, “Process for preparing polyol-based esters of acyl-capped hydroxy carboxylic acids” (KetoLipix Therapeutics GmbH, priority 2019, dated 2026).

Tests used:
pancreatin = test system: pancreatin
Experimental: Both media are from the company Biorelevant®, Ltd. in Great Britain. In addition, in some experiments porcine pancreas is added (Panzytrat® 40,000, Fa. Allergan).
The pancreatin is used in the form of the commercially available product Panzytrat® 40,000 from the Allergan company. The whole mixture is stirred on a hotplate at 50° C.; the course of the reaction is determined and followed by continuous recording of the acid number over time.

[1] = even if several grams are taken; cited from earlier work

cleavage by pancreatin (pancreatin) | Compound | duration of ketosis [1]
cleaved by pancreatin | 3-acetylacetobutyric acid di-diglycerol ester [3-acetylaceto-BHB di-diglycerol ester] | 
cleaved by pancreatin | 3-acetylacetobutyric acid mono-diglycerol ester [3-acetylaceto-BHB mono-diglycerol ester] | 
cleaved by pancreatin | 3-acetylacetobutyric acid tri-diglycerol ester [3-acetylaceto-BHB tri-diglycerol ester] | 
 | CC(O)CC(=O)O (stereo not shown) [3-hydroxybutyric acid] | three to four
